Assay results as given in patent publication US20240374631A1, “A COMPOSITION FOR IMPROVING GUT MICROBIOTA, BEHAVIOURAL PATTERN, ALPHA-SYNUCLEIN LEVELS, SLEEP PATTERN AND/OR SERUM MELATONIN” (GN Corporation Co Ltd, priority 2021, published 2024).

System: gut microbiota
Assay: Gut microbiome analysis (16S rRNA sequencing of fecal samples) in STAM model of NASH
Assay type: in vivo, C57BL/6J mice
Settings: pre
Text: The study is reported in accordance with Animal Research: Reporting of In Vivo Experiments (ARRIVE) guidelines. C57BL/6J mice were obtained from Japan SLC, Inc. (Japan). All animals used in this study were cared for under the following guidelines: Act on Welfare and Management of Animals (Ministry of the Environment, Japan, Act No. 105 of Oct. 1, 1973), standards relating to the care and management of laboratory animals and relief of pain (Notice No. 88 of the Ministry of the Environment, Japan, Apr. 28, 2006) and the guidelines for proper conduct of animal experiments (Science Council of Japan, Jun. 1, 2006). Protocol approvals were obtained from SMC Laboratories, Japan's IACUC (Study reference no: […] Mice were maintained in a specific pathogen-free (SPF) facility under controlled conditions of temperature (23±3° C.), humidity (50±20%), lighting (12-hour artificial light and dark cycles; light from 8:00 to 20:00) and air exchange. The STAM model of NASH was induced as previously described [D10]. Mice were given a single subcutaneous injection of 200 μg streptozotocin (STZ, Sigma-Aldrich, USA) solution 2 days after birth and fed with a high-fat diet (HFD, 57 kcal % fat, Cat #HFD32, CLEA Japan, Inc., Japan) from 4-9 weeks of age. All mice develop liver steatosis and diabetes and at […] mice had established steatohepatitis, histologically. Studygroups: There were five study groups, described below. Eight mice were included in each study group. Eight NASH mice were orally administered vehicle supplemented with AFO-202 Beta Glucan at a dose of 1 mg/kg in a volume of 5 mL/kg once daily from 6 to 9 weeks of age. Eight NASH mice were orally administered vehicle supplemented with Telmisartan at a dose of 10 mg/kg once daily from 6 to 9 weeks of age. Frequency: Fecal samples were collected at the 6 weeks of age (before administration) and 9 weeks of age (before sacrifice). Procedure: At 6 weeks of age, fecal samples were collected from each mouse by clean catch method. […] A sterile petri dish was placed on the bench. Gently massage the abdomen, position the bottom of mouse over a fresh petri dish, and collect 1-2 fecal pellets. At sacrifice, fecal samples were aseptically collected from cecum. The tubes with feces were placed on ice immediately. These tubes were snap frozen in liquid nitrogen and stored at -80° C. for shipping. In this analysis, the 16S rRNA sequence data acquired by the next-generation sequencer from the fecal […] was used to perform community analysis using the QIIME2 program for microbial community analysis. The raw read data in FASTQ format output from the next-generation sequencer was trimmed to remove adapter sequences and low QV regions that may be included in the data. Cutadapt was used to remove adapter sequences from DNA sequencing reads. Trimmomatic was used as read trimming tool for Illumina NGS data. The adapter sequence was trimmed using the adapter trimming program “cutadapt” if the Trimming of the region at the end of the read sequence overlapped the corresponding sequence by at least one base (mismatch tolerance: 20%). When reads containing N were present in at least one of Read1 and Read2, both Read1 and Read2 were removed. Trimming of low QV regions was performed on the read data after processing using the QV trimming program “Trimmomatic” under the following conditions. The window of 20 bases is slid from the 5' side, and the area where the average QV is less than 20 is trimmed. After trimming, only the reads with more than 50 bases remaining in both Read1 and Read2 were taken as output. The microbial community analysis based on 16S rRNA sequence was performed on the sequence data trimmed in the previous section using the microbial community analysis program “QIIME2”. The annotation program “sklearn” included in QIIME2 is used to annotate the ASV (OTU) sequences. […]

CCCc1nc2c(C)cc(-c3nc4ccccc4n3C)cc2n1Cc1ccc(-c2ccccc2C(=O)O)cc1 [Telmisartan]
Abundance S24-7/—/— (line r81): 327
Abundance Lachnospiraceae/[Ruminococcus]/gnavus (line r83): 120
Abundance Ruminococcaceae/Oscillospira/— (line r84): 284
Abundance Ruminococcaceae/Anaerotruncus/— (line r85): 638
Abundance Alcaligenaceae/Sutterella/— (line r86): 191
Abundance S24-7/—/— (line r87): 394
Abundance F16/—/— (line r88): 329
Abundance Other/Other/Other (line r90): 276
Abundance Lachnospiraceae/[Ruminococcus]/gnavus (line r91): 168
Abundance S24-7/—/— (line r92): 476
Abundance Rikenellaceae/—/— (line r93): 259
Abundance Lachnospiraceae/[Ruminococcus]/gnavus (line r94): 62
Abundance Lachnospiraceae/—/— (line r95): 250
Abundance Clostridiaceae/Other/Other (line r96): 693
Abundance Lachnospiraceae/—/— (line r97): 78
Abundance Ruminococcaceae/Oscillospira/— (line r98): 160
Abundance Enterococcaceae/Enterococcus/— (line r99): 32
Abundance Rikenellaceae/—/— (line r100): 239
Abundance S24-7/—/— (line r101): 208
Abundance Lactobacillaceae/Lactobacillus/reuteri (line r102): 0
Abundance Bacteroidaceae/Bacteroides/acidifaciens (line r103): 161
Abundance Ruminococcaceae/Oscillospira/— (line r104): 202
Abundance Enterobacteriaceae/Escherichia/coli (line r105): 0
Abundance Ruminococcaceae/Oscillospira/— (line r106): 152
Abundance —/—/— (line r107): 228
Abundance S24-7/—/— (line r108): 157
Abundance —/—/— (line r109): 988
Abundance Other/Other/Other (line r110): 463
Abundance Lachnospiraceae/—/— (line r111): 46
Abundance Lachnospiraceae/[Ruminococcus]/gnavus (line r112): 148
Abundance Lachnospiraceae/—/— (line r113): 390
Abundance Enterobacteriaceae/Klebsiella/Other (line r114): 0
Abundance Lachnospiraceae/—/— (line r115): 76
Abundance Enterobacteriaceae/Klebsiella/— (line r116): 0
Abundance —/—/— (line r117): 0
Abundance Lactobacillaceae/Lactobacillus/— (line r118): 4
Abundance Other/Other/Other (line r119): 57
Abundance —/—/— (line r120): 209
Abundance Erysipclotrichaceae/Allobaculum/— (line r121): 203
Abundance —/—/— (line r122): 131
Abundance Lachnospiraceae/—/— (line r123): 207
Abundance —/—/— (line r124): 362
Abundance Other/Other/Other (line r125): 58
Abundance Lactobacillaceae/Lactobacillus/reuteri (line r126): 0
Abundance Ruminococcaceae/Oscillospira/— (line r127): 158
Abundance Lachnospiraceae/—/— (line r128): 50
Abundance S24-7/—/— (line r130): 64
Abundance Lachnospiraceae/—/— (line r131): 315
Abundance S24-7/—/— (line r132): 104
Abundance S24-7/—/— (line r133): 60
Abundance Lachnospiraceae/—/— (line r134): 19
Abundance —/—/— (line r135): 28
Abundance Coriobacteriaceae/Adlercreutzia/— (line r136): 110
Abundance —/—/— (line r137): 200
Abundance Clostidiaceae/Other/Other (line r138): 0
Abundance Turicibacteraceae/Turicibacter/— (line r139): 125
Abundance Ruminococcaceae/Ruminococcus/— (line r140): 193
Abundance Ruminococcaceae/Oscillospira/— (line r141): 215
Abundance Dehalobacteriaceae/Dehalobacterium/— (line r142): 43
Abundance Staphylococcaceae/Staphylococcus/Other (line r143): 110
Abundance Rikenellaceae/—/— (line r144): 61
Abundance Lachnospiraceae/—/— (line r145): 87
Abundance —/—/— (line r146): 60
Abundance Staphylococcaceae/Staphylococcus/sciuri (line r147): 34
Abundance —/—/— (line r148): 103
Abundance Ruminococcaceae/Ruminococcus/— (line r149): 157
Abundance Coriobacteriaceae/Adlercreutzia/— (line r150): 101
Abundance Ruminococcaceae/Oscillospira/— (line r151): 61
Abundance Lachnospiraceae/Clostridium/Other (line r152): 85
Abundance Lachnospiraceae/Coprococcus/— (line r153): 151
Abundance Desulfovibrionaceae/—/— (line r154): 50
Abundance —/—/— (line r155): 94
Abundance Lachnospiraceae/—/— (line r156): 0
Abundance Dehalobacteriaceae/Dehalobacterium/— (line r157): 41
Abundance Coriobacteriaceae/Adlercreutzia/— (line r158): 90
Abundance Lachnospiraceae/—/— (line r159): 37
Abundance Lachnospiraceae/—/— (line r160): 168
Abundance Ruminococcaceae/Oscillospira/— (line r161): 0
Abundance Streptococcaceae/Streptococcus/— (line r163): 0
Abundance Lachnospiraceae/[Ruminococcus]/gnavus (line r164): 83
Abundance Lachnospiraceae/—/— (line r165): 102
Abundance Lachnospiraceae/—/— (line r166): 231
Abundance Coriobacteriaceae/Adlercreutzia/— (line r167): 74
Abundance Erysipelotrichaceae/Clostridium/cocleatum (line r169): 0
Abundance S24-7/—/— (line r170): 53
Abundance Lachnospiraceae/—/— (line r171): 27
Abundance Bacteroidaceae/Bacteroides/— (line r172): 55
Abundance Ruminococcaceae/Oscillospira/— (line r173): 59
Abundance Ruminococcaceae/—/— (line r174): 41
Abundance Lachnospiraceae/Other/Other (line r175): 52
Abundance Lachnospiraceae/Dorea/— (line r176): 28
Abundance Lachnospiraceae/—/— (line r177): 0
Abundance S24-7/—/— (line r178): 168
Abundance Lachnospiraceae/—/— (line r179): 92
Abundance Lactobacillaceae/Lactobaccilus/Other (line r180): 0
Abundance —/—/— (line r181): 34
Abundance Ruminococcaceae/Oscillospira/— (line r182): 99
Abundance S24-7/—/— (line r183): 55
Abundance S24-7/—/— (line r184): 67
Abundance [Mogibacteriaceae]/—/— (line r185): 36
Abundance Peptococcaceae/—/— (line r186): 43
Abundance —/—/— (line r187): 13
Abundance —/—/— (line r188): 0
Abundance S24-7/—/— (line r189): 76
